Test: gradient 5% acetonitrile 3 min, to 50% in 2 min, to 85% in 15 min, held 3 min, 100 µL/min
Details: column: Zorbax Extend-C18 2.1 x 50 mm; eluents: water / acetonitrile, 0.1% formic acid
How it was run: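 The mobile phases were water and acetonitrile, each with 0.1% formic acid, pumped at 100 μL/min through a Zorbax Extend-C18 column (2.1 × 50 mm, 1.8 μm). Pure standards were injected as mixtures of ~100 molecules and detected by a quadrupole time-of-flight mass spectrometer in positive and negative ionization mode. Retention time came from computationally picked adduct peaks, each inspected by hand.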

Compound | RP-LC retention time [s]
CC(C)NC(=O)C1CCc2sc(C(=O)N3CCCCC3)cc2C1 (stereo unspecified) | 779
O=C(c1cccc2c1CCN2C(=O)c1ccc(F)cc1)N1CCOCC1 | 704
CC(C)C1c2nccn2CCCN1C(=O)c1cc(C2CC2)[nH]n1 (stereo unspecified) | 592
COc1ccc(CN2C=C(C(=O)OCc3ccccc3C)C(C)=NS2(=O)=O)cc1 | 1140
COc1ccc(OC)c(-c2ccc(=O)n(CCc3nc(-c4ccc(C)cc4)no3)n2)c1 | 1020
COc1ccc(OC)c(NC(=O)Cn2nc(N3CCC(C)CC3)c3ccccc3c2=O)c1 | 1180
O=C(NCc1ccc(-c2noc(/C=C/c3ccccc3)n2)s1)C1CC1 | 915
CCn1cnc(S(=O)(=O)N2CCC(C(=O)N3CCN(c4ccccn4)CC3)CC2)c1 | 556
O=C(c1cnccn1)N1CC(c2nc(CCOCC3CC3)no2)C1 | 691
O=C(c1cn[nH]c1)N1CCC(c2nc(CCOCC3CCCC3)no2)C1 (stereo unspecified) | 717
Cc1ccc(F)c2c(=O)c3c([nH]c12)CCN(CC(=O)Nc1ccc2c(c1)OCO2)C3 | 615
Cc1sc(-c2cc(C(F)(F)F)on2)cc1S(=O)(=O)Nc1cccc(Cl)c1 | 1180
O=C(c1ccc(C(F)(F)F)cc1)N1CCc2nc(-c3ccc(Cl)cc3)ncc2C1 | 1170
COCCCNC(=O)N1CCC(C)(c2noc(C3CCOCC3)n2)CC1 | 654
Cc1ccc(-c2nnc(Cc3nc(-c4ccccn4)no3)o2)cc1F | 822
COc1ccc(-c2nnc(SCc3ccc(Br)cc3)o2)c(OC)c1 | 1120
COc1cc2c(cc1CNC(=O)c1ccc3c(c1)CC(C)O3)OCCCO2 (stereo unspecified) | 855
Cc1cccc(NC(=O)CSc2cc(N3CCCC(C)C3)ncn2)c1 (stereo unspecified) | 1020
CC(=O)Nc1ccc(NC(=O)C2CCCN(c3nccnc3Sc3ccc(C)cc3)C2)cc1 (stereo unspecified) | 894
CCOC(=O)c1cc2n(n1)CC(C)(C(=O)NCc1ccccc1)N(Cc1ccccc1)C2=O (stereo unspecified) | 880
CCc1nc2cc(-c3noc(-c4ccco4)n3)ccc2o1 | 968
CC(C)CN1CCCCc2cc(C(=O)NC(C)(C)C)sc21 | 1270

Compound | RP-LC retention time [s]
Cn1nc(-c2nnc(-c3ccc(F)cc3)o2)c2c1CCN(C(=O)Nc1ccc(Cl)cc1)C2 | 936
COC(=O)CC1=CC(SCC(=O)NC2CCc3ccccc32)=Nc2ccccc2N1 (stereo unspecified) | 547
Cc1cc(NC(=O)C(C)C2CCN(C(=O)Nc3ccc(Cl)cc3)CC2)ccc1F (stereo unspecified) | 952
Cc1ccc(N2CCC(NC(=O)Nc3ccc(F)cc3F)C2=O)cc1C (stereo unspecified) | 903
COc1ccc(-n2nc(SCC(=O)Nc3ccc(Cl)cc3)ccc2=O)cc1 | 629
CC(C)c1nnc2n1CCN(C(=O)COc1cccc(Cl)c1)C2 | 667
Cn1nccc1C(=O)N1CCN(c2cc(-c3ccccc3)[nH]n2)CC1 | 671
CC(C)Cn1cc(S(=O)(=O)NCc2cccc(F)c2)c2cccnc21 | 953
Cc1ccnc(NS(=O)(=O)c2ccc(NC(=O)c3ccc(-n4cccn4)nn3)cc2)n1 | 686
Cn1nc(CNC(=O)COc2ccc(Cl)cc2)c2ccccc21 | 853
Fc1ccc(C2Cn3nnc(-c4nc(-c5ccc(Cl)cc5)no4)c3CO2)cc1 (stereo unspecified) | 1230
COc1ccccc1N1CCN(c2cc(SCC(=O)Nc3c(C)cccc3C)ncn2)CC1 | 958
COc1ccc(Cl)cc1NC(=O)C1CCN(S(=O)(=O)c2cc(C(=O)N(C)C)cs2)CC1 | 889
FC(F)(F)Oc1ccc(CN2CCN(c3cnn4cnnc4c3)CC2)cc1 | 611
CCCNC(=O)C1CCCN(c2ccc(SCC(=O)Nc3ccccc3C(=O)OC)nn2)C1 (stereo unspecified) | 705
O=C(Nc1ccc2nc3n(c(=O)c2c1)CCCCC3)C(=O)N1CCc2ccccc21 | 889
COc1ccc(CN2C(=O)C3(CCOCC3)CC2c2nnnn2C(C)(C)C)c(OC)c1 (stereo unspecified) | 734
Cc1cc(-c2nnc(NC(=O)CS(=O)(=O)c3ccc(Cl)cc3)o2)nn1C | 677
O=C(CCc1cn(-c2ccccc2)nc1-c1ccc2c(c1)OCO2)NCCCN1CCOCC1 | 681
O=C(NC1CCCc2c1[nH]c1ccc(F)cc21)c1ccncc1 (stereo unspecified) | 774
O=S1(=O)N(Cc2cccc(F)c2)CCCN1Cc1ccccc1Cl | 1180
COc1ccc(NC(=O)C2CCCN2S(=O)(=O)c2ccc(F)cc2)cc1 (stereo unspecified) | 844

Compound | RP-LC retention time [s]
CC(=O)Nc1cc2c(cc1Sc1ccc(Cl)cc1)n(C)c(=O)n2C | 806
Cc1cc(N(C)C)n2nc(CN3CCN(c4ccccc4)CC3)nc2n1 | 607
O=C1CCCc2cc(S(=O)(=O)N3CCC(C(=O)NC4CCCC4)CC3)ccc2N1 | 761
CCOc1ccccc1CNC(=O)c1cc(NC(C)=O)cc2nc(C)ccc12 | 653
CCOc1ccc2nc(C(=O)N3CCN(c4ccccn4)CC3)cn2n1 | 600
COCCn1cc(CCNC(=O)Nc2cc(Cl)ccc2C)c2cccnc21 | 795
Cc1nc2ccc(NC(=O)c3ccc(Cn4ccnc4)cc3)cc2s1 | 565
CC(Cc1cccs1)NC(=O)CCS(=O)(=O)c1ccccc1 (stereo unspecified) | 746
Cc1nc2cccnc2n1CC1CCCN(S(=O)(=O)Cc2ccc(Cl)cc2)C1 (stereo unspecified) | 718
Cc1cc2c(c(=O)n(-c3ccc(F)cc3)c(=O)n2CC(=O)Nc2ccc(Cl)cc2F)n1C | 894
O=C(NCCc1ccccc1)c1nnc(-c2ccc(S(=O)(=O)N3CCCCC3)cc2)o1 | 1040
CCOc1ccc(N2CC(c3nc(-c4ccc(C)cc4)no3)CC2=O)cc1 (stereo unspecified) | 1090
Cn1cc(-c2nc(C(=O)NCc3cc(F)cc(F)c3)cs2)c2cccnc21 | 944
CCc1noc(C2(NC(=O)c3ccc(Cl)cc3)CCCCC2)n1 | 1010
Cc1cccc(NC(=O)N2CCc3[nH]cnc3C2c2ccncc2)c1 (stereo unspecified) | 557
O=C(NCC1CCCO1)c1ccc(CN2CCN(Cc3ccccc3)C(=O)C2=O)cc1 (stereo unspecified) | 669
O=C(NCCN1CCOCC1)C1CCN(c2nc3cccnc3s2)CC1 | 570
O=C(CCc1cc(Cl)no1)N1CCCCC1c1noc(COCC2CC2)n1 (stereo unspecified) | 934
CCN(CC)CCCNC(=O)C1CCC(=O)N(c2ccc(OC)cc2)C1c1ccc(F)cc1 (stereo unspecified) | 614
O=C1C(=O)N(Cc2ccc(C(=O)N3CCCCCC3)cc2)CCN1Cc1ccc(F)cc1 | 728
OCc1nc2ccccc2n1C/C=C/c1ccccc1 | 579
CCS(=O)(=O)N1[C@H]2CC[C@@H]1c1cnc(-c3ccc(F)cc3)nc1C2 | 945

Reference: the METLIN SMRT retention time set (Domingo-Almenara et al. 2019)
